In series [1] the target is T1, Peroxisome proliferator-activated receptor gamma (Homo sapiens, UniProt P37231).
T1 sequence (P37231 whole entry): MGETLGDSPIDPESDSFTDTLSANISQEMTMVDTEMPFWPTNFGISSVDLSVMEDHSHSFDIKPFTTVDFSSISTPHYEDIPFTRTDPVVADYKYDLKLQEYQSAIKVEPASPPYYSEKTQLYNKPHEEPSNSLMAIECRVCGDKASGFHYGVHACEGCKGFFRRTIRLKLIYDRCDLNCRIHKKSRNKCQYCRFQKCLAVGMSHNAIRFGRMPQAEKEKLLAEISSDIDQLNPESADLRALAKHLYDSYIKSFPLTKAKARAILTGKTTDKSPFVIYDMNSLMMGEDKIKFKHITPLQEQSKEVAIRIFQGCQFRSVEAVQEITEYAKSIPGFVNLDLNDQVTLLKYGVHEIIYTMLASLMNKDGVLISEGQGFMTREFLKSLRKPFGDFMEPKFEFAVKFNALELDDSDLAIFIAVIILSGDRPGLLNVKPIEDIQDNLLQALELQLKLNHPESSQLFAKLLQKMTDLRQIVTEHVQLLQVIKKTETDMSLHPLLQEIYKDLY
In words: Transactivation of human full length PPARgamma expressed in COS1 cells co-transfected with RXRalpha after 24 hrs by luciferase reporter gene assay. It counts as cell-based, COS-1. (Reporter assays use an easily measured gene product as a stand-in for the process of interest.)

Series [2] concerns the target T2, Peroxisome proliferator-activated receptor gamma (Homo sapiens) (UniProt P37231).
T2 sequence (whole entry): T1 sequence (P37231 whole entry)
In words: Transactivation of human full length PPARgamma expressed in COS1 cells co-transfected with RXRalpha after 24 hrs by luciferase reporter gene assay relative to farglitazar. The format is cell-based. Conditions: COS-1.

Series [3] deals with Mus musculus. In words: Hypotriglyceridemic activity in diabetic KK-Ay mouse model assessed as decrease in triglyceride level at 30 mg/kg, po qd for 14 days (reference value: 819.9 +/- 135.5 mg/dl). The format is functional.
Series [4] concerns the target T3, Peroxisome proliferator-activated receptor alpha (Homo sapiens) (UniProt Q07869).
T3 sequence (whole entry): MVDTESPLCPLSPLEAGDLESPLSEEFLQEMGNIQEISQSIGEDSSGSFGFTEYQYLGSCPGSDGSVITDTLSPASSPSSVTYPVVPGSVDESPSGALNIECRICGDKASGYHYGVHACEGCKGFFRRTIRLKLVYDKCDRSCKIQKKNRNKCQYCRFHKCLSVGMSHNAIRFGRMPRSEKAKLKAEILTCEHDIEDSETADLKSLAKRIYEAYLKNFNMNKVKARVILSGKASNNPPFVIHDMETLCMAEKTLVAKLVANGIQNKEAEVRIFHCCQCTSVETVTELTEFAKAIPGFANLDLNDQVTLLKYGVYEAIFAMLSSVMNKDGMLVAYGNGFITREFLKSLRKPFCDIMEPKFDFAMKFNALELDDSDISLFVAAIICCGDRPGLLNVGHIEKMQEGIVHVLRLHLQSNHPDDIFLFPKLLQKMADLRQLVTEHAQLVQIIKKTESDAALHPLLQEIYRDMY
In words: Transactivation of human full length PPARalpha expressed in COS1 cells co-transfected with RXRalpha after 24 hrs by luciferase reporter gene assay relative to WY14643. The format is cell-based. As to conditions: COS-1.

For series [5], the target named is T2, Peroxisome proliferator-activated receptor gamma (Homo sapiens). In words: Ratio of rosiglitazone EC50 to compound EC50 for human full length PPARgamma.
For series [6], the system named is Rattus norvegicus. Put plainly: Effect on hematocrit level in Sprague-Dawley rat at 50 mg/kg after 28 days (reference value: 49.4 +/- 0.4 %). It counts as functional.
For series [7], the system named is Mus musculus. In words: Hypoglycemic activity in po dosed diabetic KK-Ay mouse model assessed as decrease in glucose level compound administered for 14 days. As to conditions: for ED50: 336 h. It counts as functional.
Series [8] concerns Rattus norvegicus. Put plainly: Effect on RBC count in Sprague-Dawley rat at 25 mg/kg after 28 days (reference value: 862 +/- 21.5 x 10 ' 4/micro L). It counts as functional.
In series [9] the test system is Mus musculus. In words: Hypotriglyceridemic activity in po dosed diabetic KK-Ay mouse model assessed as decrease in triglyceride level compound administered for 14 days. It counts as functional. As to conditions: for ED50: 336 h.
Series [10] concerns Mus musculus. Put plainly: Hypotriglyceridemic activity in diabetic KK-Ay mouse model assessed as decrease in triglyceride level at 3 mg/kg, po qd for 14 days (reference value: 819.9 +/- 135.5 mg/dl). The format is functional.
Series [11] is described as follows: Cmax in Sprague-Dawley rat at 10 mg/kg after 0.5 to 8 hrs by HPLC analysis. It counts as ADME, organism-based. Also on record: dose 10 mg/kg. As to conditions: in vivo.
Series [12] deals with Mus musculus. Put plainly: Hypoglycemic activity in diabetic KK-Ay mouse model assessed as decrease in glucose level at 10 mg/kg, po qd for 4 days relative to untreated control. It counts as functional. Details: scale not given: the % may be the effect or the level left.
The subject of series [13] is Mus musculus. Put plainly: Hypoglycemic activity in diabetic KK-Ay mouse model assessed as decrease in glucose level at 3 mg/kg, po qd for 14 days (reference value: 648.4 +/- 77.1 mg/dl). The format is functional.
For series [14], the system named is Mus musculus. Put plainly: Hypotriglyceridemic activity in diabetic KK-Ay mouse model assessed as decrease in triglyceride level at 10 mg/kg, po qd for 14 days (reference value: 819.9 +/- 135.5 mg/dl). It counts as functional.
The test system of series [15] is Rattus norvegicus. Put plainly: Effect on hematocrit level in Sprague-Dawley rat at 12.5 mg/kg after 28 days (reference value: 49.4 +/- 0.4 %). It counts as functional.
Series [16] relates to Rattus norvegicus. Put plainly: Effect on RBC count in Sprague-Dawley rat at 100 mg/kg after 28 days (reference value: 862 +/- 21.5 x 10 ' 4/micro L). It counts as functional.
The subject of series [17] is Rattus norvegicus. Put plainly: Effect on RBC count in Sprague-Dawley rat at 50 mg/kg after 28 days (reference value: 862 +/- 21.5 x 10 ' 4/micro L). It counts as functional.
Series [18] relates to Mus musculus. In words: Hypoglycemic activity in diabetic KK-Ay mouse model assessed as decrease in glucose level at 10 mg/kg, po qd for 14 days (reference value: 648.4 +/- 77.1 mg/dl). The format is functional.
For series [19], the system named is Rattus norvegicus. In words: Effect on hematocrit level in Sprague-Dawley rat at 25 mg/kg after 28 days (reference value: 49.4 +/- 0.4 %). It counts as functional.
For series [20], the system named is Rattus norvegicus. Put plainly: Effect on RBC count in Sprague-Dawley rat at 12.5 mg/kg after 28 days (reference value: 862 +/- 21.5 x 10 ' 4/micro L). It counts as functional.
For series [21], the system named is Mus musculus. In words: Hypoglycemic activity in diabetic KK-Ay mouse model assessed as decrease in glucose level at 30 mg/kg, po qd for 14 days (reference value: 648.4 +/- 77.1 mg/dl). It counts as functional.
Series [22] relates to Rattus norvegicus. Put plainly: Effect on hematocrit level in Sprague-Dawley rat at 100 mg/kg after 28 days (reference value: 49.4 +/- 0.4 %). It counts as functional.
In series [23] the target is T4, Tyrosine-protein phosphatase non-receptor type 1 (Homo sapiens, UniProt P18031).
T4 sequence (P18031 whole entry): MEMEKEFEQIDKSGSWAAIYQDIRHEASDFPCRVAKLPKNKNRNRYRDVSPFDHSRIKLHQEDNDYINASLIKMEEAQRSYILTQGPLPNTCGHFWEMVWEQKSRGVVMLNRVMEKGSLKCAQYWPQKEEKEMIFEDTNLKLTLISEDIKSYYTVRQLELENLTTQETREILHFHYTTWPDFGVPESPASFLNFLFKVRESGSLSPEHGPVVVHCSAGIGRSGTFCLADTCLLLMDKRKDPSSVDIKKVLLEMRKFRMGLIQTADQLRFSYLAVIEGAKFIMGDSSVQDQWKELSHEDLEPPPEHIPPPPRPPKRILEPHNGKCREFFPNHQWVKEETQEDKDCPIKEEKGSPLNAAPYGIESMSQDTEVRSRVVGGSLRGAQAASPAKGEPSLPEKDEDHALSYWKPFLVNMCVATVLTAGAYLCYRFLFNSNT
Put plainly: Inhibition of PTB1B using pNPP as substrate after 30 mins.

Series [24] has as its system Mus musculus. Put plainly: Ratio of rosiglitazone ED50 to compound ED50 for po dosed diabetic KK-Ay mouse model. It counts as functional.
Series [25] relates to Rattus norvegicus. In words: Effect on RBC count in Sprague-Dawley rat at 50 mg/kg after 28 days (reference value: 832 +/- 25.2 x 10 ' 4/micro L). It counts as functional.
The subject of series [26] is Rattus norvegicus. In words: Effect on RBC count in Sprague-Dawley rat at 12.5 mg/kg after 28 days (reference value: 832 +/- 25.2 x 10 ' 4/micro L). It counts as functional.
The test system of series [27] is Rattus norvegicus. In words: Effect on hematocrit level in Sprague-Dawley rat at 100 mg/kg after 28 days (reference value: 47.5 +/- 0.6 %). The format is functional.
Series [28] relates to Rattus norvegicus. Put plainly: Effect on RBC count in Sprague-Dawley rat at 25 mg/kg after 28 days (reference value: 832 +/- 25.2 x 10 ' 4/micro L). The format is functional.
Series [29] concerns Rattus norvegicus. In words: Effect on hematocrit level in Sprague-Dawley rat at 25 mg/kg after 28 days (reference value: 47.5 +/- 0.6 %). It counts as functional.
Series [30] deals with Rattus norvegicus. In words: Effect on hematocrit level in Sprague-Dawley rat at 50 mg/kg after 28 days (reference value: 47.5 +/- 0.6 %). It counts as functional.
In series [31] the test system is Rattus norvegicus. Put plainly: Effect on hematocrit level in Sprague-Dawley rat at 12.5 mg/kg after 28 days (reference value: 47.5 +/- 0.6 %). The format is functional.
The test system of series [32] is Rattus norvegicus. In words: Effect on RBC count in Sprague-Dawley rat at 100 mg/kg after 28 days (reference value: 832 +/- 25.2 x 10 ' 4/micro L). The format is functional.

The results in this text go back to ChEMBL document CHEMBL1933004, “Novel (S)-1,2,3,4-tetrahydroisoquinoline-3-carboxylic acids: peroxisome proliferator-activated receptor γ selective agonists with protein-tyrosine phosphatase 1B inhibition” (Bioorg Med Chem, 2012).

A word on the EC50: it is the concentration giving half of the maximal effect. One may read the ED50 as the midpoint of the dose-response relation. The Cmax is the highest concentration seen after dosing. As a reminder, the IC50 is the point on the concentration scale where inhibition reaches its midpoint.

Compound `C/C=C/C=C/C(=O)N1Cc2cc(OCCc3nc(/C=C/CCC(C)C)oc3C)ccc2C[C@H]1C(=O)O.CC(C)(C)N` showed an EC50 in series [1] of 30 nM. Further, the Emax in series [2] was 98%; in series [4], below 50%. Further, the Activity in series [3] was 318.4 mg/dL; in [6] it was 48.2%; in [7] it was “Dose-dependent effect”; in series [8] it was 807 ×10⁴ /uL; in series [9], “Dose-dependent effect”; in [10], 625.6 mg/dL. Moreover, the Activity came out at 55% in series [12]; 385.2 mg/dL in series [13]; 243.8 mg/dL in [14]; 49.7% in series [15]; 817 ×10⁴ /uL in series [16]; 835 ×10⁴ /uL in series [17]. Also, the Activity in series [18] was found to be 273.7 mg/dL; in series [19] it was 47.1%; in series [20], 868 ×10⁴ /uL; in series [21], 252.5 mg/dL; in series [22], 47.8%. In addition, the Ratio EC50 in series [5] was 4. The median effective dose (ED50) in series [7] was found to be 4.3 mg/kg; in [9], 6.2 mg/kg. For the same compound, the concentration in series [11] peaked (Cmax) at 4.5 µM. The compound further gave an IC50 in series [23] of 1180 nM. Further, the “Ratio ED50” value in series [24] came to 5.

In the case of `CN(CCOc1ccc(CC2SC(=O)NC2=O)cc1)c1ccccn1` (centres undefined) [ROSIGLITAZONE], the Activity was 504.9 mg/dL in [3]; 724 ×10⁴ /uL in series [25]; 791 ×10⁴ /uL in series [26]; 42.3% in [27]; 727 ×10⁴ /uL in series [28]; “Dose-dependent effect” in series [7]. Further, the Activity entry in [9] was “Dose-dependent effect”; in [10] it was 593.3 mg/dL; in series [12], 48%; in series [13], 413.5 mg/dL; in series [14] it was 672.3 mg/dL; in series [29], 43.9%. The Activity in series [30] was 43.1%; in series [18], 392.9 mg/dL; in [21], 320.6 mg/dL; in series [31] it was 46.3%; in series [32] it was 679 ×10⁴ /uL. In addition, in series [4], the Emax is 105%. Also, the ED50 in series [7] was 23 mg/kg; in series [9] it was above 30 mg/kg. The same compound displayed a Cmax in series [11] of 34.7 µM. The same compound displayed a half-inhibitory concentration (IC50) in series [23] above 30000 nM.

With `C/C=C/C=C/C(=O)N1Cc2cc(OCCc3nc(/C(C)=C/CCC(C)C)oc3C)ccc2C[C@H]1C(=O)O.CC(C)(C)N`, the half-maximal effective concentration (EC50) in series [1] was found to be 20 nM. Further, the Emax is 119% in series [2] and below 50% in [4]. For the same compound, the Ratio EC50 in series [5] was determined as 4. The Activity in [12] was 56%. In [23], this compound showed a half-inhibitory concentration (IC50) of 1020 nM.
